Reference: patent US7192746B2, “α-Isomaltosyltransferase, process for producing the same and use thereof” (Kabushiki Kaisha Hayashibara Seibutsu Kagaku Kenkyujo, priority 2000, dated 2007)

What was measured:
Format in all cases: biochemical
[1] = system: α-isomaltosyl-transferring enzyme from Bacillus globisporus C11; assay: Formation of cyclotetrasaccharide from components A, B and C; settings: Enzyme of Strain C11; for Saccharide composition, remaining Substrate: 1% (w/v) substrate, pH 6.0, 1 unit/g substrate; for Saccharide composition, remaining Substrate / Saccharide composition, Cyclotetrasaccharide / Saccharide composition, Glucose / Saccharide composition, Others: 35° C., 8 hours
Protocol: (§1) Using a purified α-isomaltosyl-transferring enzyme, the formation of cyclotetrasaccharide from the above-identified components A, B and C was examined as follows: One percent (w/v) of an aqueous solution (pH 6.0) of the component A (3-O-α-isomaltosylpanose represented by Chemical Formula 1), the component B (4-O-α-isomaltosylpanose represented by Chemical Formula 2), or the component C (1-O-α-isomaltosyl-β-panoside represented by Chemical Formula 3) was prepared into a substrate solution. To each of the resulting solutions was added one unit/g substrate of a purified specimen of α-isomaltosyl-transferring enzyme from Bacillus globisporus C9 obtained by the method in Experiment 4, or Bacillus globisporus C11 obtained by the method in Experiment 7, followed by enzymatic reaction at 35° C. for eight hours. Thereafter, the resulting mixtures were analyzed on HPLC for saccharide composition (%).

[2] = system: α-isomaltosyl-transferring enzyme from Bacillus globisporus C9; assay: as above; settings: Enzyme of Strain C9; for Saccharide composition, remaining Substrate: 1% (w/v) substrate, pH 6.0, 1 unit/g substrate; for Saccharide composition, remaining Substrate / Saccharide composition, Cyclotetrasaccharide / Saccharide composition, Glucose / Saccharide composition, Others: 35° C., 8 hours
Protocol: as §1

[3] = system: α-isomaltosyl-transferring enzyme from Arthrobacter ramosus S1; assay: Formation of reducing power from high molecular glucans; settings: printed Enzyme of Strain N75 a second time
Protocol: (§2) In the above experiment, no detectable amount of a lower molecular weight saccharide such as cyclotetrasaccharide detectable on TLC was formed from soluble starch, pullulan and dextran as high molecular glucans. The following test was carried out to confirm that the α-isomaltosyl-transferring enzyme of the present invention neither increase the reducing power of the above high molecular glucans nor hydrolyze them. To a solution of soluble starch, pullulan or dextran was added 12 units/g substrate of a purified specimen of α-isomaltosyl-transferring enzyme from either Bacillus globisporus C9 obtained by the method in Experiment 4, Bacillus globisporus C11 obtained by the method in Experiment 7, Bacillus globisporus N75 obtained by the method in Experiment 11, or Arthrobacter ramosus S1 obtained by the method in Experiment 15. The resulting each solution was adjusted to give a substrate concentration of one percent (w/v) and incubated at 35° C. and pH 6.0 for four hours. The reducing saccharide contents and the total sugar contents in the resulting reaction mixtures after the enzymatic reactions were respectively quantified by the Somogyi-Nelson's method and the anthrone-sulfuric acid reaction method. The percentage of forming reducing power was calculated by the following equation, and the results are in Table 13:
(§3) [formula] [formula] AR: Reducing sugar content after enzymatic reaction. AT: Total sugar content after enzymatic reaction. BR: Reducing sugar content before enzymatic reaction. BT: Total sugar content before enzymatic reaction.

[4] = system: α-isomaltosyl-transferring enzyme from Bacillus globisporus N75; assay: as above; settings: Enzyme of Strain N75
Protocol: as §2, §3

[5] = system: α-isomaltosyl-transferring enzyme from Bacillus globisporus C11; assay: Action on saccharides (substrates, TLC); parameters: key: −: there was found no substrate change before and after the enzymatic reaction; +: there were found both the reduction of substrate and the formation of cyclotetrasaccharide after the enzymatic reaction; settings: 2 units/g substrate, 2% (w/v) substrate, 30° C., pH 6.0, 24 hours
Procedure, shortened: (§4)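 Purified enzyme (2 units/g substrate) was incubated with each saccharide at 2% (w/v), pH 6.0, 30° C. for 24 hours. Reaction mixtures before and after incubation were run on silica gel TLC in n-butanol/pyridine/water (6:4:1), with total sugars stained by sulfuric acid-methanol and reducing sugars by diphenylamine-aniline.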

[6] = system: α-isomaltosyl-transferring enzyme from Arthrobacter ramosus S1; assay: Action on saccharides (substrates, TLC); parameters: key: −: there was found no substrate change before and after the enzymatic reaction; +: there were found both the reduction of substrate and the formation of cyclotetrasaccharide after the enzymatic reaction; settings: 2 units/g substrate, 2% (w/v) substrate, 30° C., pH 6.0, 24 hours
Procedure, shortened: as §4

[7] = system: α-isomaltosyl-transferring enzyme from Arthrobacter globiformis A19; assay: Action on saccharides (substrates, TLC); parameters: key: −: there was found no substrate change before and after the enzymatic reaction; +: there were found both the reduction of substrate and the formation of cyclotetrasaccharide after the enzymatic reaction; settings: partially purified enzyme, 2 units/g substrate, 2% (w/v) substrate, 30° C., pH 6.0, 24 hours
Procedure, shortened: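 Purified enzyme (partially purified for A. globiformis A19) at 2 units/g substrate acted on each saccharide at 2% (w/v), pH 6.0, 30° C., 24 h. Pre- and post-reaction mixtures ran on silica gel TLC in n-butanol/pyridine/water (6:4:1). Total sugars were stained by sulfuric acid-methanol and reducing sugars by diphenylamine-aniline.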

[8] = system: α-isomaltosyl-transferring enzyme from Bacillus globisporus N75; assay: Action on saccharides (substrates, TLC); parameters: key: −: there was found no substrate change before and after the enzymatic reaction; +: there were found both the reduction of substrate and the formation of cyclotetrasaccharide after the enzymatic reaction; settings: 2 units/g substrate, 2% (w/v) substrate, 30° C., pH 6.0, 24 hours
Procedure, shortened: as §4

[9] = system: α-isomaltosyl-transferring enzyme from Bacillus globisporus C9; assay: Action on saccharides (substrates, TLC); parameters: key: −: there was found no substrate change before and after the enzymatic reaction; +: there were found both the reduction of substrate and the formation of cyclotetrasaccharide after the enzymatic reaction; settings: 2 units/g substrate, 2% (w/v) substrate, 30° C., pH 6.0, 24 hours
Procedure, shortened: as §4

[10] = system: α-isomaltosyl-transferring enzyme from Bacillus globisporus C11; assay: Formation of reducing power from high molecular glucans; settings: Enzyme of Strain C11
Protocol: as §2, with “The resulting each solution was adjusted to give a substrate concentration of one percent (w/v) and incubated at 35° C. and pH 6.0 for four hours.” left out
as §3

[11] = system: α-isomaltosyl-transferring enzyme from Bacillus globisporus C9; assay: as above; settings: Enzyme of Strain C9
Protocol: as §2, with “The resulting each solution was adjusted to give a substrate concentration of one percent (w/v) and incubated at 35° C. and pH 6.0 for four hours.” left out
as §3

[12] = 0 hr, 12 units/g substrate, 1% (w/v), 35° C., pH 6.0

Compound: OC[C@H]1O[C@H](OC[C@H]2O[C@H](O[C@@H]3[C@@H](O)[C@@H](OC[C@H]4O[C@H](O[C@H]5[C@H](O)[C@@H](O)C(O)O[C@@H]5CO)[C@H](O)[C@@H](O)[C@@H]4O)O[C@H](CO)[C@H]3O)[C@H](O)[C@@H](O)[C@@H]2O)[C@H](O)[C@@H](O)[C@@H]1O (stereo partly drawn) [Component A, 3-O-α-isomaltosylpanose]
- Saccharide composition, remaining Substrate [1]: 9.0%
- Saccharide composition, Cyclotetrasaccharide [1]: 67.4%
- Saccharide composition, Glucose [1]: 17.4%
- Saccharide composition, Others [1]: 6.2%
- Molar ratio of the formed glucose and cyclotetrasaccharide: cyclotetrasaccharide ([1]; numeral in parenthesis): (1.08)
- Molar ratio of the formed glucose and cyclotetrasaccharide: glucose ([1]; numeral in parenthesis): (1.00)
- Saccharide composition, remaining Substrate [2]: 9.3%
- Saccharide composition, Cyclotetrasaccharide [2]: 67.6%
- Saccharide composition, Glucose [2]: 17.2%
- Saccharide composition, Others [2]: 5.9%
- Molar ratio of the formed glucose and cyclotetrasaccharide: cyclotetrasaccharide ([2]; numeral in parenthesis): (1.09)
- Molar ratio of the formed glucose and cyclotetrasaccharide: glucose ([2]; numeral in parenthesis): (1.00)

Compound: OC[C@H]1O[C@H](OC[C@H]2O[C@H](O[C@H]3[C@H](O)[C@@H](O)[C@@H](OC[C@H]4O[C@H](O[C@H]5[C@H](O)[C@@H](O)C(O)O[C@@H]5CO)[C@H](O)[C@@H](O)[C@@H]4O)O[C@@H]3CO)[C@H](O)[C@@H](O)[C@@H]2O)[C@H](O)[C@@H](O)[C@@H]1O (stereo partly drawn) [Component B, 4-O-α-isomaltosylpanose]
- Saccharide composition, remaining Substrate [1]: 77.0%
- Saccharide composition, Cyclotetrasaccharide [1]: 5.0%
- Saccharide composition, Glucose [1]: 0.6%
- Saccharide composition, Others [1]: 17.4%
- Saccharide composition, remaining Substrate [2]: 77.1%
- Saccharide composition, Cyclotetrasaccharide [2]: 5.1%
- Saccharide composition, Glucose [2]: 0.7%
- Saccharide composition, Others [2]: 17.1%

Compound: pullulan
- Percentage of forming reducing power [3, 12]: 0.0%
- Percentage of forming reducing power ([3]; 1 hr): 0.0%
- Percentage of forming reducing power ([3]; 2 hr): 0.0%
- Percentage of forming reducing power ([3]; 3 hr): 0.0%
- Percentage of forming reducing power ([3]; 4 hr): 0.0%
- Percentage of forming reducing power [4, 12]: 0.0%
- Percentage of forming reducing power ([4]; 1 hr): 0.0%
- Percentage of forming reducing power ([4]; 2 hr): 0.0%
- Percentage of forming reducing power ([4]; 3 hr): 0.0%
- Percentage of forming reducing power ([4]; 4 hr): 0.0%
- Enzymatic action for forming cyclotetrasaccharide, Enzyme of Strain C11 [5]: −
- Enzymatic action for forming cyclotetrasaccharide, Enzyme of Strain S1 [6]: −
- Enzymatic action for forming cyclotetrasaccharide, Enzyme of Strain A19 [7]: −
- Enzymatic action for forming cyclotetrasaccharide, Enzyme of Strain N75 [8]: −
- Enzymatic action for forming cyclotetrasaccharide, Enzyme of Strain C9 [9]: −
- Percentage of forming reducing power [10, 12]: 0.0%
- Percentage of forming reducing power ([10]; 1 hr): 0.0%
- Percentage of forming reducing power ([10]; 2 hr): 0.0%
- Percentage of forming reducing power ([10]; 3 hr): 0.0%
- Percentage of forming reducing power ([10]; 4 hr): 0.0%
- Percentage of forming reducing power [11, 12]: 0.0%
- Percentage of forming reducing power ([11]; 1 hr): 0.0%
- Percentage of forming reducing power ([11]; 2 hr): 0.0%
- Percentage of forming reducing power ([11]; 3 hr): 0.0%
- Percentage of forming reducing power ([11]; 4 hr): 0.0%

Compound: soluble starch
- Percentage of forming reducing power [3, 12]: 0.0%
- Percentage of forming reducing power ([3]; 1 hr): 0.0%
- Percentage of forming reducing power ([3]; 2 hr): 0.0%
- Percentage of forming reducing power ([3]; 3 hr): 0.0%
- Percentage of forming reducing power ([3]; 4 hr): 0.0%
- Percentage of forming reducing power [4, 12]: 0.0%
- Percentage of forming reducing power ([4]; 1 hr): 0.0%
- Percentage of forming reducing power ([4]; 2 hr): 0.0%
- Percentage of forming reducing power ([4]; 3 hr): 0.0%
- Percentage of forming reducing power ([4]; 4 hr): 0.0%
- Enzymatic action for forming cyclotetrasaccharide, Enzyme of Strain C11 [5]: −
- Enzymatic action for forming cyclotetrasaccharide, Enzyme of Strain S1 [6]: −
- Enzymatic action for forming cyclotetrasaccharide, Enzyme of Strain A19 [7]: −
- Enzymatic action for forming cyclotetrasaccharide, Enzyme of Strain N75 [8]: −
- Enzymatic action for forming cyclotetrasaccharide, Enzyme of Strain C9 [9]: −
- Percentage of forming reducing power [10, 12]: 0.0%
- Percentage of forming reducing power ([10]; 1 hr): 0.1%
- Percentage of forming reducing power ([10]; 2 hr): 0.0%
- Percentage of forming reducing power ([10]; 3 hr): 0.0%
- Percentage of forming reducing power ([10]; 4 hr): 0.0%
- Percentage of forming reducing power [11, 12]: 0.0%
- Percentage of forming reducing power ([11]; 1 hr): 0.0%
- Percentage of forming reducing power ([11]; 2 hr): 0.0%
- Percentage of forming reducing power ([11]; 3 hr): 0.0%
- Percentage of forming reducing power ([11]; 4 hr): 0.0%
